Results from publication PMC3429506, “Screening for Novel LRRK2 Inhibitors Using a High-Throughput TR-FRET Cellular Assay for LRRK2 Ser935 Phosphorylation” (PLoS ONE, 2012).

Assays:
LRRK2 G2019S [1] = biological target: T1, LRRK2 G2019S (Homo sapiens, UniProt Q5S007, G2019S); assay: In vitro biochemical LRRK2 TR-FRET activity assay; details: for IC50: LRRK2 G2019S, ATP 134 µM (Km,app), LRRKtide substrate, three independent experiments, read-out: Biochemical LRRK2 assay IC50 +/- SD
Method: The Biochemical LRRK2 TR-FRET activity assay was performed according to the manufacture recommended assay protocol (Life Technologies). […] After incubation at room temperature for 1 hour, the kinase reactions were stopped by addition of 10 µL of 20 mM EDTA and 4 nM Tb-anti-pERM (pLRRKtide) antibody in TR-FRET dilution buffer (Life Technologies). After a 30 minute incubation at room temperature, TR-FRET measurements were obtained on a BMG PHERAstar plate reader using LanthaScreen® filters and settings. A 16 point, 2-fold dilution series of each compound was tested in triplicate at each concentration and assays were also performed in triplicate.

GFP-LRRK2 G2019S = biological target: T2, GFP-LRRK2 G2019S (Homo sapiens, UniProt Q5S007, G2019S); assay: Immunoprecipitation/Western analysis of LRRK2 phosphorylation at Ser910, Ser935, Ser955, Ser973 in HEK293 T-REx GFP-LRRK2 G2019S cells; format: cell-based; details: for effect on phosphorylation of Ser910, Ser935, Ser955 and Ser973 (IP-Western): 20 µM, 90 min, HEK293 GFP-LRRK2 G2019S, Figure 6
T2 construct: expressed in transfected cells
T2 sequence (Q5S007 whole entry G2019S): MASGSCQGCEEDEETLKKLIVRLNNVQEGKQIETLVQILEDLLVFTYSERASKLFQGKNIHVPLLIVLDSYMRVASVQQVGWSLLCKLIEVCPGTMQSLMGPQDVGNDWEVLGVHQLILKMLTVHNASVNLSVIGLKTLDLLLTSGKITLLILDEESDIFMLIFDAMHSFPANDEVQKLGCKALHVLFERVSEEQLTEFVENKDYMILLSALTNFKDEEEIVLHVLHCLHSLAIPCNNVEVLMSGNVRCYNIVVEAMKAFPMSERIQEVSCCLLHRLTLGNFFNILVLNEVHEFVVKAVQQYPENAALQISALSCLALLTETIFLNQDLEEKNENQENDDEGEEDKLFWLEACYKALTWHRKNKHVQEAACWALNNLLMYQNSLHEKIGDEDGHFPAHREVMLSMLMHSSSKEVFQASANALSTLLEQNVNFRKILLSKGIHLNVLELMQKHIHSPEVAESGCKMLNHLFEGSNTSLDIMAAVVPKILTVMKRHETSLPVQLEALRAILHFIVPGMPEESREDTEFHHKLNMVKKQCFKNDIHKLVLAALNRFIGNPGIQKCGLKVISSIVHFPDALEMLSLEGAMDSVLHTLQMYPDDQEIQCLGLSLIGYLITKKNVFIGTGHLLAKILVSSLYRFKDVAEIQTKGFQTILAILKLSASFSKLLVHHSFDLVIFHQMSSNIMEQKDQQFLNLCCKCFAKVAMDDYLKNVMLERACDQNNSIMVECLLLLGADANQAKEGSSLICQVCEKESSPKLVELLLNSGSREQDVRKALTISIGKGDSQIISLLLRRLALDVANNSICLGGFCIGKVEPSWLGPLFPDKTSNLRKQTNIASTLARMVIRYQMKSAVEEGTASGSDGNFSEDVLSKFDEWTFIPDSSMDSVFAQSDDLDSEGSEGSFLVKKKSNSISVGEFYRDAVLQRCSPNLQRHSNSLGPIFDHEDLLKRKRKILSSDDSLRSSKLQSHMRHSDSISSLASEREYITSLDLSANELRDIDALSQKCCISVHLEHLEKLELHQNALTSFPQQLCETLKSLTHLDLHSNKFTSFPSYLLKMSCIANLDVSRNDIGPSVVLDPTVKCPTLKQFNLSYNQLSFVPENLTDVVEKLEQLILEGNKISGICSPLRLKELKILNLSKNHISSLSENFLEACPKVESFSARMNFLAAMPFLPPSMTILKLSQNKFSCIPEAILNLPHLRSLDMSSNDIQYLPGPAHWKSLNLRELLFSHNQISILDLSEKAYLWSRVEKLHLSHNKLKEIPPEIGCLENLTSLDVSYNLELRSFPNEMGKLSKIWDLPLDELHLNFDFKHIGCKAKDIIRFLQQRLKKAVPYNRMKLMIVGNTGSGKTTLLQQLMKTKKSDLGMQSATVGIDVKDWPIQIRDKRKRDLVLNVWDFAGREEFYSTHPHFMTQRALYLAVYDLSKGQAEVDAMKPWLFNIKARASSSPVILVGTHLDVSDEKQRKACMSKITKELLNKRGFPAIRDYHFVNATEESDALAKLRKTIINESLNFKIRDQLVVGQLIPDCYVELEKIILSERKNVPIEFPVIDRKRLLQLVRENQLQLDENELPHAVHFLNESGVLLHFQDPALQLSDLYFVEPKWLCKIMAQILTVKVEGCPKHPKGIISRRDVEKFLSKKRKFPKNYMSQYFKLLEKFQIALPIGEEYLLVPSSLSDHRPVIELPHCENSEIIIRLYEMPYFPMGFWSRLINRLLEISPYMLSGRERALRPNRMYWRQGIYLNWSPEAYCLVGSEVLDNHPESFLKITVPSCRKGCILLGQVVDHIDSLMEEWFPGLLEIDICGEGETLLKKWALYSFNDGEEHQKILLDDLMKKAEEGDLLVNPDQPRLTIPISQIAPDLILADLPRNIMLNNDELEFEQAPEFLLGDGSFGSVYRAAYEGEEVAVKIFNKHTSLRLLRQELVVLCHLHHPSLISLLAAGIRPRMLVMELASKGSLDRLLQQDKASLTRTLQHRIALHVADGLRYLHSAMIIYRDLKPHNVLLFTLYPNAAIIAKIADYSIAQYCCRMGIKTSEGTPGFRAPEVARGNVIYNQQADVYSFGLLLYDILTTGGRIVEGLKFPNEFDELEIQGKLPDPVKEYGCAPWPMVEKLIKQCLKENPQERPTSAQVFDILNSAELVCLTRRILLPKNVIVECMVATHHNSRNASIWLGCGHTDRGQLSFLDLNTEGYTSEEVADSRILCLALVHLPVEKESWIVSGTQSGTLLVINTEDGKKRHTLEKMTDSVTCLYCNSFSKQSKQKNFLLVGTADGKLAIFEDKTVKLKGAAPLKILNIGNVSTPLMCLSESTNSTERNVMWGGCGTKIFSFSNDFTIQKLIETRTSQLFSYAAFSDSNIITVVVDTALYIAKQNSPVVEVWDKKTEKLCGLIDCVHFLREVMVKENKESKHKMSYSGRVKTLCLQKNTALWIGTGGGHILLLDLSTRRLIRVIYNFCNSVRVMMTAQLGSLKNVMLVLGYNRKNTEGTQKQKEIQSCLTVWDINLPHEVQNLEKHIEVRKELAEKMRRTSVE
Method: (§1) Immunoblot analysis: BacMam LRRK2-GFP transduced U-2 OS or SH-SY5Y cells (10^7 cells) were left untreated or treated with 3 µM LRRK2-IN-I for 90 min. For lysate preparation, the cells were washed once with ice-cold PBS and lysed by addition of ice-cold lysis buffer (20 mM Tris-HCl, pH 7.4, 1% NP-40, 5 mM EDTA, 5 mM NaF, 150 mM NaCl, and 1∶100 of protease and phosphatase inhibitor cocktails). The lysate was cleared of debris by centrifugation. Equal amount of total protein was loaded onto each lane for SDS-PAGE (3–8% Tris Acetate). The proteins were transferred onto nitrocellulose membrane using the iBLOT® dry blotting system (Life Technologies) according to manufacturer’s protocol. The membranes were blocked and incubated with a primary antibody against LRRK2 (Cell Signaling Technologies), followed by incubation with alkaline phosphatase-conjugated secondary antibody (WesternBreeze® chromogenic Kit, Life Technologies). The blot was developed by using the chromogenic BCIP/NBT substrate (WesternBreeze® chromogenic Kit, Life Technologies). […] Two days post induction, cells were treated for 90 minutes in the presence of 20 µM of compound or DMSO vehicle control. Cells were rapidly lysed in ice cold lysis buffer 50 mM Tris/HCl, pH 7.5, 1 mM EGTA, 1 mM EDTA, […] 1 mM sodium orthovanadate, 10 mM sodium beta-glycerolphosphate, 50 mM NaF, 5 mM sodium pyrophosphate, 0.27 M sucrose, 1 mM benzamidine and 2 mM phenylmethanesulphonylfluoride (PMSF) and one tablet each complete protease inhibitor and PhosSTOP phosphatase inhibitor (Roche) and was supplemented with 1% (v/v) Triton X-100. GFP-LRRK2 was immunoprecipitated with GFP nanotrap beads (ChromoTek). Immunecomplexes were washed twice with lysis buffer supplemented with 300 mM NaCl and once with Buffer A (50 mM Tris/HCl, pH 7.5, 50 mM NaCl, 0.1 mM EGTA and 0.1% (v/v) 2-mercaptoethanol, and 0.27 M sucrose).

LRRK2 A2016T/G2019S = biological target: T3, LRRK2 A2016T/G2019S (Homo sapiens, UniProt Q5S007, A2016T/G2019S); assay: Immunoprecipitation/Western analysis of LRRK2 phosphorylation in T-REx HEK293 cells expressing inhibitor desensitizing mutant; format: cell-based; details: for effect of desensitizing mutation A2016T/G2019S on compound-induced dephosphorylation (IP-Western): 20 µM, Figure 6 IRM
T3 construct: expressed in transfected cells
T3 sequence (Q5S007 whole entry A2016T/G2019S): as the sequence (Q5S007 whole entry G2019S) above, with A2016T counted along it
Method: as §1

[2] = system: SH-SY5Y cells expressing LRRK2-GFP G2019S; assay: Cytotoxicity assay (resazurin-based cell viability); details: read-out: Cytotoxicity Assay IC50; same conditions as TR-FRET follow-up; one representative of two experiments
LRRK2 G2019S [3] = biological target: T1, LRRK2 G2019S; assay: TR-FRET cellular assay for LRRK2 Ser935 phosphorylation, SH-SY5Y cells, BacMam LRRK2-GFP G2019S (incl. Tocriscreen Mini library screen and follow-up); format: cell-based; design: This high-throughput assay utilizes cells expressing full-length human LRRK2 with a C-terminal GFP tag (LRRK2-GFP); host or cells: SH-SY5Y cells transduced with BacMam; details: for %Inhibition Initial screen: Tocriscreen Mini library screen, 20 µM, relative to LRRK2-IN-1 control; for Cellular TR-FRET Assay Max % Inhibition: 90 min; for IC50: three independent experiments
Method: (§2) U-2 OS cells are maintained in growth medium (McCoy’s 5A supplemented with 10% dialyzed FBS (dFBS), 10 mM HEPES, 0.1 mM NEAA, 1 mM Sodium Pyruvate, and 100 U/mL Penicillin/100 µg/mL Streptomycin). HEK293T cells are maintained in DMEM with 10% dFBS, 10 mM HEPES, 0.1 mM NEAA and 100 U/mL Penicillin/100 µg/mL Streptomycin. SH-SY5Y cells are maintained in DMEM/F-12 medium supplemented with 10% dFBS and 100 U/mL Penicillin/100 µg/mL Streptomycin. […] GIBCO® human neural stem cells (hNSCs) were propagated as an adherent culture in StemPro® NSC SFM according to the manufacturer’s recommended protocol (Life Technologies). For BacMam transduction of U-2 OS and HEK293T, cells were harvested, mixed with various amounts of BacMam LRRK2-GFP reagent (v/v) and plated onto 6-well plates. […] Cells were assayed in 384-well format (∼20,000 cells/well) 48 hours post-transduction as above.
(§3) Transduced cells in the 384-well assay plate were incubated with indicated inhibitors (5X, 5 µL/well) for 60 to 90 minutes. During this time, 6 X lysis buffer (Life Technologies) was supplemented with 30 nM Tb-labeled anti-LRRK2 pSer935 antibody and both protease and phosphatase inhibitor cocktails (Sigma). The complete 6 X lysis buffer was added to each well (5 µL/well) and the plates were incubated at room temperature in the dark for 2 hours. […] A sigmoidal dose-response equation with varying slope was used to fit the data and generate IC50 values. Z′-factor values were calculated as: Z′-factor = 1 - [(3 × stdevno virus +3 × stdevmaxvirus)/(avgmaxvirus – avgno-virus)]. The IC50 values reported in Table 1 are the averaged numbers from three independent experiments.
40 nL of 10 mM Tocris library compounds in DMSO were dispensed into each well of the assay plate by the ECHO system. Equal volumes of DMSO were dispensed into the control wells. Cells were incubated with compounds for 90 to 120 min prior to cell lysis and detection as described above. The percent inhibition is calculated as: [(average emission ratios of DMSO control wells – average emission ratios of compound wells)/(average emission ratios of DMSO control wells – average emission ratios of LRRK2-IN-1 treated wells)] * 100. For the dose-response follow-up studies, fresh compound DMSO stock solutions were prepared from powder. […] Z′-factor value was calculated as: Z′-factor = 1 - [(3 × stdevLRRK2-IN-1+3 × stdevDMSO)/(avgDMSO – avgLRRK2-IN-1)]. The IC50 values reported in Table 2 are the averaged numbers from three independent experiments for both cellular and biochemical TR-FRET assays and one representative result of two independent experiments for the cytotoxicity assay.

LRRK2 wild-type [4] = biological target: T4, LRRK2 wild-type (Homo sapiens, UniProt Q5S007); assay: TR-FRET cellular assay for LRRK2 Ser935 phosphorylation, U-2 OS cells, BacMam LRRK2-GFP wild-type; format: cell-based; design: This high-throughput assay utilizes cells expressing full-length human LRRK2 with a C-terminal GFP tag (LRRK2-GFP); host or cells: U-2 OS cells transduced with BacMam; details: WT, +/- SD, three independent experiments, * = partial inhibition, read-out: IC50, TR-FRET cell-based assay for Ser935 phosphorylation of LRRK2
T4 sequence (Q5S007 whole entry): as the sequence (Q5S007 whole entry G2019S) above, with S2019G counted along it
Method: as §2, §3

LRRK2 wild-type [5] = biological target: T4, LRRK2 wild-type; assay: TR-FRET cellular assay for LRRK2 Ser935 phosphorylation, SH-SY5Y cells, BacMam LRRK2-GFP wild-type; format: cell-based; design: This high-throughput assay utilizes cells expressing full-length human LRRK2 with a C-terminal GFP tag (LRRK2-GFP); host or cells: SH-SY5Y cells transduced with BacMam; details: WT, +/- SD, three independent experiments, * = partial inhibition, read-out: IC50, TR-FRET cell-based assay for Ser935 phosphorylation of LRRK2
Method: as §2, §3

LRRK2 wild-type [6] = biological target: T4, LRRK2 wild-type; assay: TR-FRET cellular assay for LRRK2 Ser935 phosphorylation, HEK293T cells, BacMam LRRK2-GFP wild-type; design: This high-throughput assay utilizes cells expressing full-length human LRRK2 with a C-terminal GFP tag (LRRK2-GFP); host or cells: HEK293T cells transduced with BacMam; details: WT, +/- SD, three independent experiments, * = partial inhibition, read-out: IC50, TR-FRET cell-based assay for Ser935 phosphorylation of LRRK2
Method: as §2, §3

LRRK2 G2019S [7] = biological target: T1, LRRK2 G2019S; assay: TR-FRET cellular assay for LRRK2 Ser935 phosphorylation, HEK293T cells, BacMam LRRK2-GFP G2019S; design: This high-throughput assay utilizes cells expressing full-length human LRRK2 with a C-terminal GFP tag (LRRK2-GFP); host or cells: HEK293T cells transduced with BacMam; details: +/- SD, three independent experiments, * = partial inhibition, read-out: IC50, TR-FRET cell-based assay for Ser935 phosphorylation of LRRK2
Method: as §2, §3

LRRK2 G2019S [8] = biological target: T1, LRRK2 G2019S; assay: TR-FRET cellular assay for LRRK2 Ser935 phosphorylation, U-2 OS cells, BacMam LRRK2-GFP G2019S; format: cell-based; design: This high-throughput assay utilizes cells expressing full-length human LRRK2 with a C-terminal GFP tag (LRRK2-GFP); host or cells: U-2 OS, SH-SY5Y, HEK293T cells or human neural stem cells transduced with BacMam; details: G2019S, +/- SD, three independent experiments, * = partial inhibition, read-out: IC50, TR-FRET cell-based assay for Ser935 phosphorylation of LRRK2
Method: as §2, §3

[9] = dose-response follow-up, SH-SY5Y G2019S
[10] = dose-response follow-up, SH-SY5Y G2019S, read-out: Cellular TR-FRET Assay IC50 +/-SD
[11] = SH-SY5Y, G2019S, +/- SD, * = partial inhibition, read-out: IC50, TR-FRET cell-based assay for Ser935 phosphorylation of LRRK2

T1 sequence (Q5S007 whole entry G2019S): as the sequence (Q5S007 whole entry G2019S) above

| SMILES | IC50 (LRRK2 G2019S [1]) | effect on LRRK2 activity in vitro (LRRK2 G2019S [1]; result in words) | effect on phosphorylation of Ser910, Ser935, Ser955 and Ser973 (IP-Western) (GFP-LRRK2 G2019S) | LRRK2 phosphorylation remaining, % of untreated G2019S (GFP-LRRK2 G2019S; 293 cells, LRRK2 G2019S) | effect of desensitizing mutation A2016T/G2019S on compound-induced dephosphorylation (IP-Western) (LRRK2 A2016T/G2019S) | LRRK2 phosphorylation remaining, % of untreated G2019S (LRRK2 A2016T/G2019S; 293 cells, LRRK2 G2019S/A2016T) | IC50 [2] | %Inhibition Initial screen (LRRK2 G2019S [3]; SH-SY5Y G2019S) | Cellular TR-FRET Assay Max % Inhibition (LRRK2 G2019S [3]; [9]) | IC50 (LRRK2 G2019S [3]; [10]) | IC50 (LRRK2 wild-type [4]) | IC50 (LRRK2 wild-type [5]) | IC50 (LRRK2 G2019S [3]; [11]) | IC50 (LRRK2 wild-type [6]) | IC50 (LRRK2 G2019S [7]) | IC50 (LRRK2 G2019S [8]) |
| --- | --- | --- | --- | --- | --- | --- | --- | --- | --- | --- | --- | --- | --- | --- | --- | --- |
| Cc1ccc(S(=O)(=O)/C=C/C#N)cc1 [Bay 11-7821] | > 100000 nM | did not repress LRRK2 activity in vitro | moderately reduced phosphorylation of all four residues | 50% | did not appear to be changed | 50% | 20000 nM | 85.5% | 94% | 4000 nM | – | – | – | – | – | – |
| O=C1Nc2ccc(I)cc2/C1=C/c1cc(Br)c(O)c(Br)c1 [GW5074] | – | – | – | – | – | – | – | – | – | – | > 20000 nM | > 20000 nM | > 20000 nM | > 20000 nM | 280 nM | 470 nM |
| Cn1cc(/C=C2\C(=O)Nc3cccnc32)c2ccccc21 [GW 441756] | 320 nM | – | inhibited phosphorylation of Ser910, Ser935, Ser955 and Ser973 | – | rescued phosphorylation | – | > 20000 nM | 69.7% | 72% | 2200 nM | – | – | – | – | – | – |
| Cc1cncc2cccc(S(=O)(=O)N3CCCNC[C@@H]3C)c12 [H-1152] | – | – | – | – | – | – | – | – | – | – | 3280 nM | 1660 nM | 770 nM | 2940 nM | 1380 nM | 890 nM |
| O=C1C(SCCO)=C(SCCO)C(=O)c2ccccc21 [NSC 95397] | 15000 nM | – | moderately reduced phosphorylation of all four residues | – | – | – | 7800 nM | 76.1% | 80% | 1300 nM | – | – | – | – | – | – |
| O=C1NC(=O)c2c1c1c3ccccc3n3c1c1c2c2ccccc2n1C1CCC3O1 [SB 218078] | – | – | moderately reduced phosphorylation of all four residues | – | did not appear to be changed | – | > 20000 nM | 55.3% | 54% | 9500 nM | – | – | – | – | – | – |
